The subject of one data set is human body. The note with it: cited from earlier work.
The nature of data set [1]: Example 3: turbidity of concentrated stabilizing replenisher after passage of time. The note with it: 40° C.; for Turbidity after Passage of Time: 2.0 mol. The data set is classed as physicochemical. Details: key to Turbidity after Passage of Time: E: Neither turbidity nor precipitation.; G: Turbidity occurred very slightly.; M: Slightly precipitation formed at the bottom of the vessel in addition to turbidity.; B: Precipitation layer of 5 mm or more formed on the bottom of the vessel. As to the method: One liter of the concentrated stabilizing replenisher shown below was prepared and filled in a 1.2 liter polyethylene bottle.
After allowing to stand the concentrated solution thus-prepared at 40° C. for 1 month or 6 months, the turbidity of the solution was visually observed.
In addition, the evaluation standards of the turbidity of the solution with the passage of time in Table C are as follows.

Data set [2] can be described thus: Example 6: image storage stability (magenta fading), image stabilizer in conditioning bath. As to the method: The same processing steps as in Example 4 were carried out except for changing the conditioning solution and the stabilizing solution as follows.
In this case, the time for the final stabilizing step was one minute and the time for the conditioning step was changed as shown in Table E in the processing.
By using the same method as in Example 1, the image storage stability of the processed film obtained and the vapor pressure of formaldehyde were evaluated.

Data set [3] in a line: Example 1: evaluation of image storage stability (magenta fading), stabilizing solution. Particulars: 2 weeks 60° C. 20% RH. As to the method: In addition, the time for the stabilization step was changed by changing the length of the processing rack.
Thereafter, the sample was allowed to stand for 2 weeks under the conditions of 60° C. 20% RH and then the magenta density was measured again. Thus, magenta fading was evaluated by the reduced magenta density in the density stage that the magenta density after processing was 1.5. (M fading)

Data set [4] can be described thus: Example 2: fading of the magenta density at intermediate density portion. The note with it: formaldehyde 4.0 mmol, no formula (I) or (II) additive; 2 weeks 60° C., 70% RH. As to the method:
The following processing steps were carried out using the following processing solutions and a cine type automatic processor.
According to a sample, fading of the magenta density at the intermediate density portion and the occurrence of yellow stain at the minimum density portion were observed.

The conditions of data set [5]: water.

Turning to `C=O` [Formaldehyde, reference compound], in the data set on human body (Japan Association of Industrial Health), the “allowable concentration in a working environment” value is reported as ≤ 0.5 ppm. In addition, the “harm on inhalation (in words)” value in the data set with human body (human body) is reported as “harmful for the human body”. Moreover, the “Turbidity after Passage of Time” value in data set [1] (1 month) and in data set [1] (6 months) was “M” each time. Moreover, in data set [1] (concentrated stabilizing replenisher, 1 month or 6 months), the “turbidity / precipitates on storage (in words)” value is “white floatings precipitates accumulated on the bottom of the vessel”. In addition, the “M Fading” value is recorded as 0.11 in data set [2] (3 mmol/l, time of conditioning bath 40 sec.); 0.00 in data set [2] (3 mmol/l, time of conditioning bath 90 sec.); 0.00 in data set [2] (3 mmol/l, time of conditioning bath 120 sec.); 0.03 in data set [2] (13 mmol/l, time of conditioning bath 40 sec.); 0.00 in data set [2] (13 mmol/l, time of conditioning bath 90 sec.); 0.00 in data set [2] (13 mmol/l, time of conditioning bath 120 sec.). Also, the “M Fading” value in data set [3] (5 mmol/l, stabilization time 10 sec.) is given as 0.20; in data set [3] (5 mmol/l, stabilization time 20 sec.) it was 0.15; in data set [3] (5 mmol/l, stabilization time 60 sec.), 0.08; in data set [3] (27 mmol/l, stabilization time 10 sec.), 0.03; in data set [3] (27 mmol/l, stabilization time 20 sec.), 0.00; in data set [3] (27 mmol/l, stabilization time 60 sec.), 0.00. The M-Fading in data set [4] was determined as 0.15.

Molecule `C=CCNCC=C` [II-3] gave a pKa in data set [5] of 9.3.

The values are drawn from patent publication US5270148A, “Processing solution for silver halide color photographic materials and method for processing the materials with the processing solution” (priority 1991, dated 1993).
